Patent US8318781B2, “G-protein-conjugated receptor agonist” (Japan Science and Technology Agency, priority 2007, dated 2012)
Like-named read-outs stand apart in the source and are kept apart here.

What was measured:
Assay type in all cases: cell-based
[1] = molecular target: T1, human GPR40 (hGPR40) (Homo sapiens, UniProt O14842); experiment: ERK assay, screening for GPR40 ligands in cell line TXGPR40; details: TXGPR40 cells; for ERK activation for GPR40 (in words): FIGS. 1-4; for ERK/GPR40 10 μM: ligand 10 μM; for ERK/GPR40 10 μM / ERK/GPR40 100 μM: class relative to LA; for ERK/GPR40 100 μM: ligand 100 μM
T1 construct: expressed in transfected cells; doxycycline-inducible expression vector
T1 sequence (O14842 whole entry): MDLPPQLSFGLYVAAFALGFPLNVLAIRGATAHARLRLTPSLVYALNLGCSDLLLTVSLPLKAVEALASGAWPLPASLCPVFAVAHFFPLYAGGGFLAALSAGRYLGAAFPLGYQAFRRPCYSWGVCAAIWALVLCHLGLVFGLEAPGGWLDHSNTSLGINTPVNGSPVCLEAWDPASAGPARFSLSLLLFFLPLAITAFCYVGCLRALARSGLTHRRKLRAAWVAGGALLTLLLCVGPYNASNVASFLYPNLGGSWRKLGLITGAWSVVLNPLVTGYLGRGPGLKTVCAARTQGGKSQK
Procedure: (§1) This Test 1 was carried out by using the following materials and methods.
(§2) (1) In this test, the cell lines TXGPR40 and TXGPR120 were plated in 35-mm dishes in 5×10^5 cells/per dish.
(§3) Each ligand was dissolved in DMSO, diluted tenfold with the medium to make the total amount of 100 μl. DMSO was used as the negative control, and PMA (phorbol-12-myristate-13-acetate) was used as the positive control.
(§4) (3) The medium was removed from the dish of the cell to reduce the total amount of liquid to 0.9 ml.
(§5) (4) The ligand solution was added dropwise to the cell solution, and dispersed by gently shaking the dish, and allowed to react at room temperature.
(§6) (5) After 5 minutes of reaction, the medium was discarded, and the remaining medium on the dish was removed on ice using an aspirator.
(§7) (6) 150 μl of Lysis buffer (50 mM HEPES (pH 7.0), 150 mM NaCl, 10% glycerol, 1% NonidetP-40, 2 mM MgCl2, 1 mM EDTA, 100 mM NaF, 10 mM sodium phosphate, 1 mM Na3VO4, 20 mM β-glycerophosphate, and Proteinase inhibitor) were added, then the cells were collected using a cell scraper.
(§8) (1) The crude enzyme solution mixed with SDS Sample Buffer was subjected to ultrasonication with a sonifier, then incubated at 90° C. for five minutes.
(§9) (2) The mixture was vortexed and centrifuged at 15,000 rpm for five minutes at 4° C.
(§10) (3) The supernatant of the centrifuged sample was applied to two 7.5% acrylamide gel slabs placed in an electrophoresis tank filled with 1×SDS-PAGE Running Buffer (25 mM Tris, 0.2 M Glycin, and 1% SDS). Electrophoresis was carried out under a constant current of 40 mA for about 80 to 90 minutes.
(§11) (1) A PVDF membrane cut in the same size as the gel slab was immersed in methanol for about 15 seconds and then shaken in Transfer Buffer C solution (25 mM Tris, 0.02% SDS, 2% methanol and 40 mM 6-aminohexanoic acid) at room temperature to swell for 15 minutes. Filter paper for blotting was cut into a 10-cm square.
(§12) (2) On the blotting apparatus were placed sequentially two pieces of filter paper immersed in A solution (0.3 M Tris, 0.02% SDS and 2% methanol), two pieces of filter paper immersed in B solution (25 mM Tris, 0.02% SDS and 2% methanol), and the membrane thereon. The gel slab after electrophoresis, and finally two pieces of filter paper immersed in C solution was placed thereon, and the apparatus was closed.
(§13) (3) The protein was transferred to the membrane at 15 V for 30 minutes.
(§14) (1) The following procedure was all carried out at room temperature. After the protein transfer, the membrane was placed into a vial containing 1×TTBS (0.2 M Tris, 1.5 M NaCl, 0.2% Tween 20) and washed for 15 minutes.
(§15) (2) TTBS was discarded, and about 10 ml of Block Ace was added and blocked on a shaker for one hour.
(§16) (1) The primary antibodies (p44/42 MAP Kinase Antibody and Phospho-p44/42 MAP Kinase Antibody) were each diluted 1000-fold with TTBS.
(§17) (2) After blocking, the Block Ace solution was removed, the solution of the primary antibody was added and allowed to react on the shaker for two hours.
(§18) (1) The secondary antibody (Anti-rabbit Ig, Horseradish Peroxidase linked F(ab′)2 fragments) was diluted 5000-fold with TTBS.
(§19) (2) The primary antibody solution was removed and the membrane was washed three times on the shaker in TTBS for five to ten minutes each.
(§20) (3) TTBS was removed and the solution of secondary antibody was added and left for 1 hour on the shaker.
(§21) (1) 2 ml each of Detection Reagent 1 and Detection Reagent 2 from ECL kit were mixed together on ice.
(§22) (2) The solution of secondary antibody was removed from the membrane reacted with the secondary antibody and then washed three times on the shaker in TTBS for five minutes each.
(§23) (3) The liquid was thoroughly removed from the membrane, which was then placed in a plastic bag, and 2 ml of the Detection Reagent mixture was added per each membrane.
(§24) (4) The membrane was kept in contact with a film in the cassette for one to five minutes, and the film was developed using an automatic developing machine.

[2] = molecular target: T1, human GPR40 (hGPR40); experiment: Determination of intracellular Ca2+ concentration (FLIPR), cell line TXGPR40; details: for agonistic activity for GPR40 (in words): cells in which GPR40 has been transgenically expressed; for [Ca^2+]/GPR40 10 μM (ratio vs. LA): relative fluorescence intensity vs LA at 10 μM
Procedure: (§25) (1) In this test, The cell lines TXGPR40, TXGPR120 and GPR120/Flp-in were plated onto a collagen-coated black 96-well plate in 2×10^5 cells/well. The 96-well plates containing the cells were centrifuged and treated with Doxycycline (final concentration 10 μg/mL), incubated in a CO2 incubator for 21 hours, then used for assay.
(§26) (2) The ligand used in this test includes NCP04, NCP14, NCG20, NCG21, NCG22, NCG23, NCP02, NCP03, NCP05, NCP06, NCG14, NCG17, NCG19, NCG28, NCG29, NCG30, NCG31, NCG34, NCG35, NCG37, NCG38, NCG44, NCG45, NCG46, and NCG54. Each ligand was dissolved in DMSO and adjusted to the concentration of 10 mM, then diluted with Hanks' Balanced Salt Solution (pH 7.4) containing 20 mM HEPES (referred to as FLIPR buffer hereinafter) to the final concentration of 1 to 100 μM. 1% DMSO was used as the negative control, and LA was used as the positive control.
(§27) The ligands and controls were placed in different 96-well plates from the plates for the cells.
(§28) (3) The 96-well plate containing the cells was removed from the CO2 incubator. A fluorescent dye prepared in a twofold higher concentration (Ca Assay Kit Component A diluted with FLIPR Buffer) was added in 50 μL/well, then allowed to stand in the dark at room temperature for one hour.
(§29) (4) After one hour, the 96-well plate containing the cells and the 96-well plate in which ligands and controls were prepared were set on FLIPR (Fluorometric Imaging Plate Reader) for determination.
(§30) (5) Fluorometry using FLIPR was carried out at a laser output of 1.0 W for five minutes. […] after the start of the determination, the ligand (25 μL) was added dropwise to the cell plate at a rate of 50 μL/sec. The intensity of fluorescence was automatically digitized by the application program installed in the FLIPR from the image taken by the CCD camera (with exposure time of 0.40 sec). The interval of data sampling was one second for the initial one minute after the start of operation, and six seconds for the subsequent four minutes.
(§31) (6) The maximum fluorescence intensity was obtained from the data showing the change in the fluorescence intensity over time observed in each well. The maximum fluorescence intensity was plotted against ligand concentration, and pEC50 was calculated. The ratio of the fluorescence intensity for each ligand to LA at 10 μM was calculated as the relative intensity of each ligand.

[3] = molecular target: T2, human GPR120 (hGPR120) (Homo sapiens, UniProt Q5NUL3); experiment: Determination of intracellular Ca2+ concentration (FLIPR), cell line TXGPR120; details: for agonistic activity for hGPR120 (in words): cells in which GPR120 has been transgenically expressed; for [Ca^2+]/GPR120 10 μM (ratio vs. LA): relative fluorescence intensity vs LA at 10 μM
T2 construct: expressed in transfected cells; doxycycline-inducible expression vector
T2 sequence (Q5NUL3 1-361): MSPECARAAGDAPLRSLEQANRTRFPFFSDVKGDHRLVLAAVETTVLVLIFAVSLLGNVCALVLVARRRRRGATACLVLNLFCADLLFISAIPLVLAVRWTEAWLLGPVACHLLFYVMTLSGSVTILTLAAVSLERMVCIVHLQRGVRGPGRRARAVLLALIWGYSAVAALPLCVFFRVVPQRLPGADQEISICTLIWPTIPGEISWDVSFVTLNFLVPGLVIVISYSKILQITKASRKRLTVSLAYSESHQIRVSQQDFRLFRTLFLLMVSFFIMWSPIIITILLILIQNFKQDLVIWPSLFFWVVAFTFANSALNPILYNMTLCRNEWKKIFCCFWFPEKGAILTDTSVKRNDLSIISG
Procedure: as §25, §26, §27, §28, §29, §30, §31

[4] = molecular target: T2, human GPR120 (hGPR120); experiment: Determination of intracellular Ca2+ concentration (FLIPR), cell line GPR120/Flp-in; details: for [Ca^2+]/GPR120/Flp-In 10 μM (ratio vs. LA): relative fluorescence intensity vs LA at 10 μM
Procedure: as §25, §26, §27, §28, §29, §30, §31

[5] = molecular target: T2, human GPR120 (hGPR120); experiment: ERK assay, screening for GPR120 ligands in cell line TXGPR120;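 for ERK/GPR120 10 μM: signals normalized between DMSO and PMA controls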; details: TXGPR120 cells; for ERK activation for GPR120 (in words): FIGS. 5-8; for ERK/GPR120 10 μM: ligand 10 μM; for ERK/GPR120 10 μM / ERK/GPR120 100 μM: class relative to LA; for ERK/GPR120 100 μM: ligand 100 μM
Procedure: as §1, §2, §3, §4, §5, §6, §7, §8, §9, §10, §11, §12, §13, §14, §15, §16, §17, §18, §19, §20, §21, §22, §23, §24

[6] = GPR120/Flp-in cells, maximum fluorescence intensity vs ligand concentration, read-out: [Ca^2+]/GPR120/Flp-In pEC50 (converted)

SMILES	ERK activation for GPR40 (in words) [1]	ERK/GPR40 10 μM [1]	ERK/GPR40 100 μM [1]	EC50 [2] [µM]	agonistic activity for GPR40 (in words) [2]	[Ca^2+]/GPR40 10 μM (ratio vs. LA) ([2]; TXGPR40 cells)	EC50 [3] [µM]	agonistic activity for hGPR120 (in words) [3]	[Ca^2+]/GPR120 10 μM (ratio vs. LA) ([3]; TXGPR120 cells)	EC50 [4] [µM]	[Ca^2+]/GPR120/Flp-In 10 μM (ratio vs. LA) ([4]; GPR120/Flp-in cells)	ERK activation for GPR120 (in words) [5]	ERK/GPR120 10 μM [5]	ERK/GPR120 100 μM [5]	EC50 ([2]; TXGPR40 cells, maximum fluorescence intensity vs ligand concentration, read-out: [Ca^2+]/GPR40 pEC50 (converted)) [µM]	EC50 [4, 6] [µM]	EC50 ([3]; TXGPR120 cells, maximum fluorescence intensity vs ligand concentration, read-out: [Ca^2+]/GPR120 pEC50 (converted)) [µM]
O=C(O)CCCc1ccc(OCCN(c2ccccc2)c2nc3ccccc3s2)cc1 [NCG31]	strongly activated ERK	+++ (+++ denotes a higher value than LA)	+++ (+++ denotes a higher value than LA)	19.1	showed a specific reactivity	0.32	17	exhibit a similar effect	0.61	6.92	0.73	strongly activate ERK	+++ (+++ denotes a higher value than LA)	+++ (+++ denotes a higher value than LA)			
CCCCN(CCOc1ccc(CCC(=O)O)cc1)c1ccccn1 [NCP04]		+++ (+++ denotes a higher value than LA)	+++ (+++ denotes a higher value than LA)		showed a specific reactivity	2.15		exhibit a similar effect	0.00		0.33		+ (+ denotes 0 to 100% of LA)	+++ (+++ denotes a higher value than LA)	2.57	18.2	
O=C(O)CCCc1ccc(OCCN(c2ccccc2)c2ccccc2)cc1 [NCG29]	strongly activated ERK	++ (++ denotes 50 to 100% of LA)	+++ (+++ denotes a higher value than LA)	20.9	showed a specific reactivity	0.21	12	exhibit a similar effect	0.85	4.27	0.88	strongly activate ERK	+++ (+++ denotes a higher value than LA)	+++ (+++ denotes a higher value than LA)			
O=C(O)CCCc1ccc(OCCN(c2ccccc2)c2ncccn2)cc1 [NCG44]			+ (+ denotes 0 to 100% of LA)			0.01		exhibit a similar effect	0.49		0.85		+ (+ denotes 0 to 100% of LA)	++ (++ denotes 50 to 100% of LA)		3.55	22.9
Cc1ccnc(N(CCOc2ccc(CCCC(=O)O)cc2)c2ccccc2)c1 [NCG34]		+ (+ denotes 0 to 100% of LA)	+++ (+++ denotes a higher value than LA)	22.4	showed a specific reactivity	0.43	28.8	exhibit a similar effect	0.49	6.92	0.81	strongly activate ERK	+++ (+++ denotes a higher value than LA)	+++ (+++ denotes a higher value than LA)			
